One assay concerns isolated mouse islets. The conditions noted are these: previously demonstrated (Jeppesen, P. B. et al., 2000); cited from earlier work.
The subject of assay [1] is isolated NMRI mice islets. Briefly: Glucose stimulated insulin secretion (GSIS) from isolated NMRI mice islets. The format is cell-based. The conditions noted are these: 10^−8 mol/l-10^−6 mol/l, 16.7 mmol/l glucose, 60 minutes. How it is done: For in vitro studies with steviol and ISV, we included adult female NMRI mice (Taconic, Ry Denmark), all weighing 22-25 g. We used 12 hours light/dark cycle. The Danish Council for Animal experiments has approved the study.
Islets were isolated by the collagenase digestion technique. In brief, the animals were anesthetized with pentobarbital (50 mg/kg intraperitoneally) and midline laparotomy was performed. The pancreas was retrogradely filled with 3 mL ice-cold Hanks balanced salt solution (([HBSS] Sigma Chemical, St Louis, Mo.) supplemented with 0.3 mg/ml collagenase Boehringer Mannheim GmbH, Germany). The pancreas was subsequently removed and incubated for 19 minutes at 37° C. After rinsing in HBSS, the islets were handpicked under a stereomicroscope and immediately transferred to a tubes containing 1 ml Trizol (Gibco/Invitrogene, Calsbad, Calif., USA). The islets isolated from the NMRI mice were incubated overnight at 37° C. and 95% normal atmosphere/5% CO2 in 10 ml RPMI 1640 containing 11.1 mmol/L glucose supplemented with penicillin G and 100 μg/mL streptomycin (all Gibco/Invitrogene, Calsbad, Calif., USA).
The NMRI female mice islets were rinsed twice with a modified Krebs-Ringer buffer (KRB) supplemented with 3.3 mmol/L glucose and 0.1% human serum albumin (Sigma). The KRB contained 125 mmol/L NaCl, 5.9 mmol/L KCl, 1.2 MgCl, 1.28 CaCl2 and 25 mmol/L HEPES (Ph 7.4: all Sigma). Single islets were incubated in 100 μL KRB containing glucose (3.3 and 16.7 mmol/L) and steviol/ISV according to the protocols (Jeppesen et al., 2000). After incubation (60 min), 50 μL of the medium was frozen for RIA analysis of insulin.

As for `C=C1C[C@@]23CC[C@H]4[C@@](C)(CCC[C@@]4(C)C(=O)O)[C@@H]2CC[C@]1(O)C3` [steviol, ent-kaur-16-en-13-ol-19-oic acid], the “insulinotropic effect on isolated mouse islets” value with isolated mouse islets is reported as “potent insulinotropic effect”. In addition, the “potency on GSIS, isosteviol compared with steviol, at higher concentration” value in assay [1] was “not found any significant difference”.

The values are drawn from patent US20100093861A1, “TREATMENT OF INSULIN RESISTANCE OR DISEASES ASSOCIATED WITH INSULIN RESISTANCE” (Stevia ApS, priority 2006, published 2010).
